Assays:
p-AXL = target: T1, p-AXL (Homo sapiens, UniProt P30530); test: Axl phosphorylation inhibition ELISA in HEK293T cells transfected with NanoLuc-tagged AXL; format: cell-based; details: 1 h compound incubation, media (OptiMEM)
T1 construct: expressed in transfected cells; host or cells: HEK293T
T1 sequence (P30530 26-894): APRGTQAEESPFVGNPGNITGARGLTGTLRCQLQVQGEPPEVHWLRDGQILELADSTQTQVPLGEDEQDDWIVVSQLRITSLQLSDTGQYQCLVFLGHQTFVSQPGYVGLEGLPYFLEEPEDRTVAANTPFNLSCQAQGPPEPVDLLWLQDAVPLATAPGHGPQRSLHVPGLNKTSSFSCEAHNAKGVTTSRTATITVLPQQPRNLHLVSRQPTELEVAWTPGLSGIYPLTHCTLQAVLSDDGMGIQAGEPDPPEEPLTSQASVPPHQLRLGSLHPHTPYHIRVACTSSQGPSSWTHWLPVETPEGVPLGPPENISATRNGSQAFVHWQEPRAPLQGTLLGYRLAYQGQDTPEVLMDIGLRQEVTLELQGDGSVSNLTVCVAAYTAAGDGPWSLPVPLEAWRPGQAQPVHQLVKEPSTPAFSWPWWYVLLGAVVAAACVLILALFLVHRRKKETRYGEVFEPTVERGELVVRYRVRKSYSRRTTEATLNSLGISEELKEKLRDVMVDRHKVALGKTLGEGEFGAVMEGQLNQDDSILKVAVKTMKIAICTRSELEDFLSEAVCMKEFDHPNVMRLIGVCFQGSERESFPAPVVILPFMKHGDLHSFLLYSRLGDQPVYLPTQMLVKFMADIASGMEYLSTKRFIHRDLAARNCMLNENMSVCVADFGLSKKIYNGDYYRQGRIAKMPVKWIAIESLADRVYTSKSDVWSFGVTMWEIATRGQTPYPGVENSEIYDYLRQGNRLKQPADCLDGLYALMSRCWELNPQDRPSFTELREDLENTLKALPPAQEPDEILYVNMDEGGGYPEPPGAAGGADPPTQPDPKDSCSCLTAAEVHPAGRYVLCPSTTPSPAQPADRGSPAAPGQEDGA
How it was run: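 Phospho-AXL detected by luminescence of NanoLuc tag after capture of cell lysate on biotinylated anti-phospho-tyrosine mAb plates (2 h). Lysates came from transiently transfected HEK293T cells treated 1 h at 37° C with serial 2-fold dilutions (22 points). IC50 by standard 4-parameter logistic fitting.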

Axl = target: T2, Axl (Homo sapiens, UniProt P30530); test: Biochemical potency, HTRF KinEASE-TK kinase assay; parameters: purchased Invitrogen; details: 5 nM AXL, 700 μM ATP
T2 sequence (P30530 26-894): T1 sequence (P30530 26-894)
How it was run: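 Enzyme (AXL 5 nM; TYRO3 or MER 1 nM final) was preincubated with compound for 1 h at RT, then reacted for 2 h at RT with 800 nM biotinylated TK substrate and 700 µM ATP in HEPES pH 7.4, MgCl2, DTT, BSA, 1% DMSO. Percent activity came from the HTRF 665/620 ratio.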

IC50 (p-AXL) | IC50 (Axl) | Structure (SMILES)
< 100 nM | < 100 nM | CC(C)(O)c1cccnc1-c1ccc(-c2c[nH]c3ncc(-c4ccc5c(c4)CC[C@@H](N4C6COCC4C6)CC5)cc23)cc1 [Example 95, 2-[2-(4-{5-[(7S)-7-{3-Oxa-6-azabicyclo[3.1.1]heptan-6-yl}-6,7,8,9-tetrahydro-5H-benzo[7]annulen-2-yl]-1H-pyrrolo[2,3-b]pyridin-3-yl}phenyl)pyridin-3-yl]propan-2-ol]
< 100 nM | < 100 nM | Cc1cccnc1-c1ccc(-c2c[nH]c3ncc(-c4ccc5c(c4)CC[C@@H](N4C6COCC4C6)CC5)cc23)nc1 [Example 96, 3-Methyl-6′-{5-[(7S)-7-{3-oxa-6-azabicyclo[3.1.1]heptan-6-yl}-6,7,8,9-tetrahydro-5H-benzo[7]annulen-2-yl]-1H-pyrrolo[2,3-b]pyridin-3-yl}-2,3′-bipyridine]
> 1000 nM | < 100 nM | Cc1ccccc1-c1ccc(-c2c[nH]c3ncc(-c4ccc5c(c4)CC[C@@H](N4C6COCC4C6)CC5)cc23)nc1 [Example 97, 6-[(7S)-2-{3-[5-(2-Methylphenyl)pyridin-2-yl]-1H-pyrrolo[2,3-b]pyridin-5-yl}-6,7,8,9-tetrahydro-5H-benzo[7]annulen-7-yl]-3-oxa-6-azabicyclo[3.1.1]heptane]
< 100 nM | < 100 nM | FC(F)Oc1cccnc1-c1ccc(-c2n[nH]c3ncc(-c4ccc5c(c4)CC[C@@H](N4C6COCC4C6)CC5)cc23)cc1 [Example 99, 6-[(7S)-2-(3-{4-[3-(Difluoromethoxy)pyridin-2-yl]phenyl}-1H-pyrazolo[3,4-b]pyridin-5-yl)-6,7,8,9-tetrahydro-5H-benzo[7]annulen-7-yl]-3-oxa-6-azabicyclo[3.1.1]heptane]
< 100 nM | < 100 nM | CS(=O)(=O)c1cccnc1-c1ccc(-c2n[nH]c3ncc(-c4ccc5c(c4)CC[C@@H](N4C6COCC4C6)CC5)cc23)cc1 [Example 101, 6-[(7S)-2-{3-[4-(3-Methanesulfonylpyridin-2-yl)phenyl]-1H-pyrazolo[3,4-b]pyridin-5-yl}-6,7,8,9-tetrahydro-5H-benzo[7]annulen-7-yl]-3-oxa-6-azabicyclo[3.1.1]heptane]
< 100 nM | < 100 nM | CS(=O)(=O)c1cccnc1-c1ccc(-c2c[nH]c3ncc(-c4ccc5c(c4)CC[C@@H](N4C6COCC4C6)CC5)cc23)cc1 [Example 102, 6-[(7S)-2-{3-[4-(3-Methanesulfonylpyridin-2-yl)phenyl]-1H-pyrrolo[2,3-b]pyridin-5-yl}-6,7,8,9-tetrahydro-5H-benzo[7]annulen-7-yl]-3-oxa-6-azabicyclo[3.1.1]heptane]
> 1000 nM | < 100 nM | FC(F)(F)Oc1cccnc1-c1ccc(-c2c[nH]c3ncc(-c4ccc5c(c4)CC[C@@H](N4C6COCC4C6)CC5)cc23)cc1 [Example 103, 6-[(7S)-2-(3-{4-[3-(Trifluoromethoxy)pyridin-2-yl]phenyl}-1H-pyrrolo[2,3-b]pyridin-5-yl)-6,7,8,9-tetrahydro-5H-benzo[7]annulen-7-yl]-3-oxa-6-azabicyclo[3.1.1]heptane]
< 100 nM | < 100 nM | c1cnc(-c2ccc(-c3n[nH]c4ncc(-c5ccc6c(c5)CC[C@@H](N5C7COCC5C7)CC6)cc34)cc2)c(O[C@@H]2CCOC2)c1 [Example 104, 6-[(7S)-2-[3-(4-{3-[(3R)—Oxolan-3-yloxy]pyridin-2-yl}phenyl)-1H-pyrazolo[3,4-b]pyridin-5-yl]-6,7,8,9-tetrahydro-5H-benzo[7]annulen-7-yl]-3-oxa-6-azabicyclo[3.1.1]heptane]

More lines, now with the values behind:

Structure (SMILES) | IC50 (p-AXL) | IC50 (Axl)
Cc1ccccc1-c1ccc(-c2n[nH]c3ncc(-c4ccc5c(c4)CC[C@@H](N4C6COCC4C6)CC5)cc23)nc1 [Example 98, 6-[(7S)-2-{3-[5-(2-Methylphenyl)pyridin-2-yl]-1H-pyrazolo[3,4-b]pyridin-5-yl}-6,7,8,9-tetrahydro-5H-benzo[7]annulen-7-yl]-3-oxa-6-azabicyclo[3.1.1]heptane] | 100 to 1000 nM | < 100 nM
CC(C)(O)c1cccnc1-c1ccc(-c2n[nH]c3ncc(-c4ccc5c(c4)CC[C@@H](N4C6COCC4C6)CC5)cc23)nc1 [Example 100, 2-(6′-{5-[(7S)-7-{3-Oxa-6-azabicyclo[3.1.1]heptan-6-yl}-6,7,8,9-tetrahydro-5H-benzo[7]annulen-2-yl]-1H-pyrazolo[3,4-b]pyridin-3-yl}-[2,3′-bipyridin]-3-yl)propan-2-ol] | < 100 nM | < 100 nM
Cc1cccnc1-c1ccc(-c2n[nH]c3ncc(-c4ccc5c(c4)CC[C@@](C)(N4CCC[C@H]4C)CC5)cc23)nc1 [Example 105, 3-Methyl-6′-{5-[(7S)-7-methyl-7-[(2R)-2-methylpyrrolidin-1-yl]-6,7,8,9-tetrahydro-5H-benzo[7]annulen-2-yl]-1H-pyrazolo[3,4-b]pyridin-3-yl}-2,3′-bipyridine] | < 100 nM | < 100 nM
Cn1nccc1-c1ccc(-c2n[nH]c3ncc(-c4ccc5c(c4)CC[C@@H](N4C6COCC4C6)CC5)cc23)cc1 [Example 109, 6-[(7S)-2-{3-[4-(1-Methyl-1H-pyrazol-5-yl)phenyl]-1H-pyrazolo[3,4-b]pyridin-5-yl}-6,7,8,9-tetrahydro-5H-benzo[7]annulen-7-yl]-3-oxa-6-azabicyclo[3.1.1]heptane] | < 100 nM | < 100 nM
Cn1ncnc1-c1ccc(-c2n[nH]c3ncc(-c4ccc5c(c4)CC[C@@H](N4C6COCC4C6)CC5)cc23)cc1 [Example 110, 6-[(7S)-2-{3-[4-(1-Methyl-1H-1,2,4-triazol-5-yl)phenyl]-2H-pyrazolo[3,4-b]pyridin-5-yl}-6,7,8,9-tetrahydro-5H-benzo[7]annulen-7-yl]-3-oxa-6-azabicyclo[3.1.1]heptane] | < 100 nM | < 100 nM
Cn1ccnc1-c1ccc(-c2n[nH]c3ncc(-c4ccc5c(c4)CC[C@@H](N4C6COCC4C6)CC5)cc23)cc1 [Example 111, 6-[(7S)-2-{3-[4-(1-Methyl-1H-imidazol-2-yl)phenyl]-1H-pyrazolo[3,4-b]pyridin-5-yl}-6,7,8,9-tetrahydro-5H-benzo[7]annulen-7-yl]-3-oxa-6-azabicyclo[3.1.1]heptane] | < 100 nM | < 100 nM
C[C@@H]1CCCN1[C@@]1(C)CCc2ccc(-c3cnc4[nH]nc(-c5ccc(-c6ncnn6C)cc5)c4c3)cc2CC1 [Example 112, 1-Methyl-5-(4-{5-[(7S)-7-methyl-7-[(2R)-2-methylpyrrolidin-1-yl]-6,7,8,9-tetrahydro-5H-benzo[7]annulen-2-yl]-1H-pyrazolo[3,4-b]pyridin-3-yl}phenyl)-1H-1,2,4-triazole] | < 100 nM | < 100 nM
CC(C)(O)c1ccccc1-c1ccc(-c2n[nH]c3ncc(-c4ccc5c(c4)CC[C@@H](N4C6COCC4C6)CC5)cc23)cn1 [Example 113, 2-[2-(5-{5-[(7S)-7-{3-Oxa-6-azabicyclo[3.1.1]heptan-6-yl}-6,7,8,9-tetrahydro-5H-benzo[7]annulen-2-yl]-1H-pyrazolo[3,4-b]pyridin-3-yl}pyridin-2-yl)phenyl]propan-2-ol] | < 100 nM | < 100 nM
CC(C)(O)c1ccccc1-c1ccc(-c2c[nH]c3ncc(-c4ccc5c(c4)CC[C@@H](N4C6COCC4C6)CC5)cc23)cn1 [Example 114, 2-[2-(5-{5-[(7S)-7-{3-Oxa-6-azabicyclo[3.1.1]heptan-6-yl}-6,7,8,9-tetrahydro-5H-benzo[7]annulen-2-yl]-1H-pyrrolo[2,3-b]pyridin-3-yl}pyridin-2-yl)phenyl]propan-2-ol] | < 100 nM | < 100 nM
Cc1ccc(-c2ccc(-c3n[nH]c4ncc(-c5ccc6c(c5)CC[C@@H](N5C7COCC5C7)CC6)cc34)cc2)nc1 [Example 115, 6-[(7S)-2-{3-[4-(5-Methylpyridin-2-yl)phenyl]-1H-pyrazolo[3,4-b]pyridin-5-yl}-6,7,8,9-tetrahydro-5H-benzo[7]annulen-7-yl]-3-oxa-6-azabicyclo[3.1.1]heptane] | 100 to 1000 nM | < 100 nM
Cc1cccc(-c2ccc(-c3n[nH]c4ncc(-c5ccc6c(c5)CC[C@@H](N5C7COCC5C7)CC6)cc34)cc2)n1 [Example 116, 6-[(7S)-2-{3-[4-(6-Methylpyridin-2-yl)phenyl]-1H-pyrazolo[3,4-b]pyridin-5-yl}-6,7,8,9-tetrahydro-5H-benzo[7]annulen-7-yl]-3-oxa-6-azabicyclo[3.1.1]heptane] | 100 to 1000 nM | < 100 nM

Source: patent US12195482B1 (Arcus Biosciences, Inc., priority 2022, dated 2025)
